Earlier results in patent US9381163B2, “Floating capsules encapsulating particles loaded with one or more drugs” (NANYANG TECHNOLOGICAL UNIVERSITY, priority 2012, dated 2016).

log P: 1.6
Substance: metoprolol tartrate salt
